Several values for one entry are separate records, joined by “and”; a condition that tells them apart may be missing. Identical values can stand only once.

Sequence of HIS-Keap1 full length / Biotin-Nrf2 (16-mer) (Q14145 whole entry): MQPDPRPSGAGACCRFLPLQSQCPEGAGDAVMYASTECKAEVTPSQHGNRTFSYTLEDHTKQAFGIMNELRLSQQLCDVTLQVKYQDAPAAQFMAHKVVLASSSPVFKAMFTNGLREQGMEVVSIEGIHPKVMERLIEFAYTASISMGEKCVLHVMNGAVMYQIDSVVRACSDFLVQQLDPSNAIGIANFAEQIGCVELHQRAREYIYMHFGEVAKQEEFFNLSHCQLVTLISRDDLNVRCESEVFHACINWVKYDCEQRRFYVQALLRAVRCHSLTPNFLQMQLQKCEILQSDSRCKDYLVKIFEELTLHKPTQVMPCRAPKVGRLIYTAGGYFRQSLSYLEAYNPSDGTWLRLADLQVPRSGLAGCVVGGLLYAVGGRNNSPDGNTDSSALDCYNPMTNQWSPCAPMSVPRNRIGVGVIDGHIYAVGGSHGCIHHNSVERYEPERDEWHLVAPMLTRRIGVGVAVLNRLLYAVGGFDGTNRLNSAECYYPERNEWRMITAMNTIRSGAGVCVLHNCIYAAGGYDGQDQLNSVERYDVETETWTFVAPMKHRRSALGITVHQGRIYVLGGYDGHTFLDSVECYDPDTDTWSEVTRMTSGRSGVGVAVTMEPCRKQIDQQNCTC

In one assay the test system is NQO1 activation in BEAS-2B cells. The assay can be described thus: BEAS-2B cellular MTT assay of NQO1 activation, 0% HSA. Format: cell-based. As to conditions: Homo sapiens, serum free, read-out: BEAS EC50 (nM) serum free. The procedure:
(§1) The growth rate of the BEAS-2B cells changed based on the lot of BEGM SingleQuots in the BEGM media. The cell growth rate was determined for each lot of SingleQuots. Ideally, cells were thawed into media with the new lot of SingleQuots and grown for two passages before testing; however, growing an active culture in the new lot of media for two to three passages before testing was also acceptable. Until the cell growth rate was determined, cells were seeded at different densities (cells/cm^2) in multiple tissue culture flasks in order to avoid the cells becoming more than 70% confluent. Cells should not go above 70% confluent as the cells differentiate when they become confluent. After the cells were grown in the new lot of media as described above, the number of cells per well needed to seed in the collagen plates was determined by seeding different numbers of cells per well and incubating for 48 hours. Cell confluency was checked after 48 hours and a cell number that results in just below to just above confluency was chosen for future plate seeding. Cell confluency in the assay plate was 95-100% confluent after 48 hours.
(§2) Cell media consists of BEBM basal media with the BEGM SingleQuots added. SingleQuots vials were thawed in the tissue culture hood, and GA-1000 (Gentamicin-Amphotericin) was not added.
(§3) If complete media was to be used immediately, BEBM basal media was warmed to room temperature in the hood, but not as high as 37° C. When the media was made for future use, SingleQuots were added to cold BEBM. One at a time, the SingleQuots components (except GA-1000) were added to the BEBM media. After removal of each component from the vial, the vial was rinsed with 0.5-1 mL of BEBM (depending on the volume the vial could hold) and added to the bottle of BEBM. Once all components were added, the label that comes with the SingleQuots kit was put on the bottle of media and the date was recorded. The bottle of media was mixed by gentle shaking. The media was not filtered. This media was stored at 4° C., with any leftover media disposed of one month after the date the SingleQuots were added.
(§4) BEAS-2B Cell Splitting Protocol:
(§5) First, Trypsin was warmed to 37° C. in the water bath. The media was then warmed to room temperature by letting it sit in the tissue culture hood, but not as high as 37° C. The media was aspirated from flask(s) and the flask(s) were washed with PBS. From 1 to 1.5 mL of warm trypsin were added to each flask and incubated at 37° C. until cells came off the flask on their own (~8-10 minutes), with no vigorous tapping on the flask to detach the cells.
(§6) Media was added to each flask to a total volume of 8-10 mL per flask and transferred to 15 mL conical tube(s). The cells were spun down at 120 g for 5 minutes, level 5 brake. The cells can be spun down between 100 and 150 g. Next the media was aspirated and the cell pellet was resuspended in fresh media by pipetting up and down and flicking the tube side to side. Any clumps of cells that remained were allowed to settle to the bottom of the tube before the top suspension was transferred into another tube, leaving about 1 mL of media in the original tube. The 1 mL of media and cell clumps were mixed with a single channel p1000 pipette, and any remaining clumps were removed before adding the cells in suspension to the other tube. The suspension was mixed with a pipette, an aliquot was removed, and the cells were counted. The amount of cells/cm^2 desired was calculated and the required volume of cells was added to tissue culture flasks. For example, use of SingleQuots with ~6000 cells/cm^2 was appropriate for a three day incubation and ~3000 cells/cm^2 for a five day incubation. Optimal cell density differed depending on lot of SingleQuots. The flasks were incubated at 37° C. in 5% CO2.
(§7) Day One: Seeding BEAS-2B Cells in Collagen Plates:
(§8) Plate(s) were either seeded with 0.3% or 0% HSA. While the protocol was similar for both conditions any differences are noted herein below. […]
For orientation: Formazan colour is commonly taken as a measure of viable cells.
With `O=C(O)CC1c2ccc3c(c2)CN(CC3)C(=O)c2ccc(cc2)OCCCCCn2nnc3cc1ccc32` (centres unmarked) [Compound 334], the concentration giving a half-maximal response (EC50) (in general, the concentration needed to bring the measured effect to its halfway point) was 547 nM.
Regarding `Cc1c2ccc3c1nnn3CCOCCCOc1ccc(c(F)c1)C(=O)N1CCc3ccc(cc3C1)C2CC(=O)O` (centres unmarked) [Compound 382], the EC50 was found to be 86.2 nM.

The assay is the same for the next values; noted with them: serum free, read-out: BEAS EC50 (nM) serum free.
For the molecule `Cc1c2ccc3c1nnn3CCOCCCOc1ccc(c(F)c1)C(=O)N1CCc3ccc(cc3C1)C2CC(=O)O` (centres unmarked) [Compound 382], the EC50 was found to be 125 nM.

Another assay shares this test system. Description: BEAS-2B cellular MTT assay of NQO1 activation, 0.3% HSA. Format: cell-based. As to conditions: BEAS+, read-out: BEAS+ EC50. The protocol:
as §1, §2, §3, §4, §5, §6, §7, §8
With `Cc1c2ccc3c1nnn3CCOCCCOc1ccc(c(F)c1)C(=O)N1CCc3ccc(cc3C1)C2CC(=O)O` (centres unmarked) [Compound 382], the EC50 was 136 nM.

The assay is the same for the next values; noted with them: Homo sapiens, BEAS+, read-out: BEAS+ EC50.
As to `O=C(O)CC1c2ccc3c(c2)CN(CC3)C(=O)c2ccc(cc2)OCCCCCn2nnc3cc1ccc32` (centres unmarked) [Compound 334], the concentration giving a half-maximal response (EC50) amounted to 898 nM.
For the molecule `Cc1c2ccc3c1nnn3CCOCCCOc1ccc(c(F)c1)C(=O)N1CCc3ccc(cc3C1)C2CC(=O)O` (centres unmarked) [Compound 382], the EC50 came out at 169 nM.

Another assay addresses HIS-Keap1 full length / Biotin-Nrf2 (16-mer) (Homo sapiens, UniProt Q14145). Description: biochemical.
Conditions: not given
Consider `O=C(O)CC1c2ccc3c(c2)CN(CC3)C(=O)c2ccc(cc2)OCC=CCn2nnc3cc1ccc32` (mixture of isomers) [Compound 419, 2-[(12E)-20-oxo-15-oxa-8,9,10,21-tetrazahexacyclo[19.5.3.216,19.13,7.06,10.024,28]dotriaconta-1(27),3,5,7(32),8,12,16(31),17,19(30),24(28),25-undecaen-2-yl]acetic Acid], for which the IC50 – broadly, the concentration that inhibits the measured activity by half – was 5.7 nM and 19.1 nM and 16.8 nM and 10.8 nM.
On to `Cc1c2ccc3c1nnn3CCCCCc1ccc(c3c1ccn3C)C(=O)N1CCc3ccc(cc3C1)[C@@H]2CC(=O)O` [Compound 26], for which the half-inhibitory concentration (IC50) is 0.4 nM and 0.3 nM.
Take `Cc1c2ccc3c1nnn3CCCCCCc1ccc(c3c1ccn3C)C(=O)N1CCc3ccc(cc3C1)[C@@H]2CC(=O)O` [Compound 27]: the IC50 is 0.4 nM and 0.3 nM.
For the molecule `Cc1c2ccc3c1nnn3CCCCCCc1ccc3c(c1)cc(n3C)C(=O)N1CCc3ccc(cc3C1)[C@@H]2[C@@H](C)C(=O)O` [Compound 28], the IC50 was 0.4 nM and 0.5 nM.
On the same count and under the same terms, the same measure for `Cc1c2ccc3c1nnn3CCCCCCc1ccc3c(c1)cc(n3C)C(=O)N1CCc3ccc(cc3C1)[C@H]2[C@@H](C)C(=O)O` [Compound 29]: 192 nM and 103 nM.
The same measure, in the same setting: the same measure for `Cc1c2ccc3c1nnn3CCCCCCc1ccc3c(c1)cc(n3C)C(=O)N1CCc3ccc(cc3C1)[C@H]2[C@H](C)C(=O)O` [Compound 30]: 103 nM and 159 nM; for `Cc1c2ccc3c1nnn3CCCCCCc1ccc3c(c1)cc(n3CCC(F)(F)F)C(=O)N1CCc3ccc(cc3C1)[C@@H]2CC(=O)O` [Compound 31]: 2.1 nM and 1.2 nM; for `Cc1c2ccc3c1nnn3CCCCCCc1ccc(c3ccn(C)c13)C(=O)N1CCc3ccc(cc3C1)[C@@H]2CC(=O)O` [Compound 32]: 0.5 nM and 0.6 nM.
For the molecule `Cc1c2ccc3c1nnn3CCCCCc1ccc(c3ccn(C)c13)C(=O)N1CCc3ccc(cc3C1)[C@@H]2CC(=O)O` [Compound 33], the IC50 is 0.4 nM and 0.3 nM.
Take `Cc1cc2ccc1C(=O)N1CCc3ccc(cc3C1)C(CC(=O)O)c1ccc3c(nnn3CCCCC2)c1F` (centres unmarked) [Compound 147]: the IC50 was 0.4 nM and 0.3 nM.
Take `Cc1nc2ncc1C(CC(=O)O)c1ccc3c(c1)CN(CC3)C(=O)c1c(F)cc(cc1F)OCCCCO2` (centres unmarked) [Compound 197]: the IC50 was 164 nM and 148 nM.
For `Cc1c2ccc3c1nnn3CCCCCCOc1cnc(nc1)C(=O)N1CCc3ccc(cc3C1)C2CC(=O)O` (centres unmarked) [Compound 198], the IC50 is 0.5 nM and 1.2 nM and 1 nM.
As to `CC(C)(C(=O)O)[C@H]1c2ccc3c(c2)CN(CC3)C(=O)c2c(F)cc(cc2F)OCCCCCCn2nnc3cc1ccc32` [Compound 235], the IC50 is 0.5 nM and 0.6 nM (2×).
For `Cc1cc2ccc1C(=O)N1CCc3ccc(cc3C1)[C@@H](C(C)(C)C(=O)O)c1ccc3c(c1)nnn3CCCCCCO2` [Compound 237], the IC50 is 22.9 nM and 36.1 nM and 70.2 nM and 28.2 nM and 29.9 nM.
In the case of `O=C(O)CC1c2ccc3c(c2)CN(CC3)C(=O)c2ccc(cc2)CCCCCn2nnc3c(Cl)c1ccc32` (centres unmarked) [Compound 249], the IC50 was 1.1 nM and 1.3 nM.
The same measure, in the same setting: the same measure for `CC(C)(C(=O)O)C1c2ccc3c(c2)CN(CC3)C(=O)c2ccc(cc2F)CCCCCn2nnc3cc1ccc32` (centres unmarked) [Compound 271]: 1.9 nM (2×) and 1.7 nM; for `CC(C)(C(=O)O)C1c2ccc3c(c2)CN(CC3)C(=O)c2ccc(cc2F)CCCCCCn2nnc3cc1ccc32` (centres unmarked) [Compound 281]: 0.4 nM (2×) and 0.5 nM (2×) and 1.4 nM and 0.6 nM.
As to `CC(C)(C(=O)O)C1c2ccc3c(c2)CN(CC3)C(=O)c2c(F)cc(cc2F)CCCCCn2nnc3cc1ccc32` (centres unmarked) [Compound 282], the IC50 is 0.4 nM (2×) and 0.3 nM (3×) and 1.1 nM.
For `O=C(O)CC1c2ccc(nc2)OCCCCCOc2cccc(c2)C(=O)N2CCc3ccc1cc3C2` (centres unmarked) [Compound 344], the IC50 is 4410 nM and 4850 nM.
Take `O=C(O)CC1c2ccc(nc2)OCC/C=C\COc2cccc(c2)C(=O)N2CCc3ccc1cc3C2` (centres unmarked) [Compound 345]: the IC50 was 2900 nM and 3360 nM.
`Cc1c2ccc3c1nnn3C/C=C/CCc1ccc3c(c1)cc(n3C)C(=O)N1CCc3ccc(cc3C1)[C@H]2[C@H](C)C(=O)O` [Compound 360] registered an IC50 of 0.9 nM.
On to `Cc1c2ccc3c1nnn3CCOCCOc1ccc(cc1)C(=O)N1CCc3ccc(cc3C1)C2CC(=O)O` (centres unmarked) [Compound 398], for which the IC50 was 5.2 nM and 17.3 nM.
Consider `O=C(O)CC1c2ccc3c(c2)CN(CC3)S(=O)(=O)c2ccc(cc2)OCCCCCCn2nnc3cc1ccc32` (centres unmarked) [Compound 404], for which the IC50 was 662 nM and 271 nM.
Turning to `O=C(O)C[C@@H]1c2ccc3c(c2)CN(CC3)Cc2ccc(cc2)OCCCCCCn2nnc3cc1ccc32` [Compound 405], the IC50 is 2150 nM and 2050 nM.
Same read-out and setting: the same measure for `Cc1c2cccc1C(=O)N1CCc3ccc(cc3C1)C(CC(=O)O)c1ccc3c(nnn3CCCCCO2)c1C` (centres unmarked) [Compound 408]: 1.6 nM and 1.5 nM and 13.2 nM and 5 nM; for `O=C(O)CC1c2ccc3c(c2)CN(CC3)C(=O)c2cccc(c2)OCCOCCn2nnc3cc1ccc32` (centres unmarked) [Compound 410]: 1050 nM and 1900 nM; for `Cc1ccc2cc1C(=O)N1CCc3ccc(cc3C1)[C@H]([C@@H](C)C(=O)O)c1ccc3c(nnn3CCCCCO2)c1C` [Compound 411]: 5.2 nM and 10.1 nM.
Same read-out and setting: in the case of `O=C(O)CC1c2ccc3c(c2)CN(CC3)C(=O)c2ccc(cc2)OCCOCCn2nnc3cc1ccc32` (centres unmarked) [Compound 412] it was 28.7 nM and 47.9 nM.
As to `Cc1c2ccc3c1nnn3CCOCCOc1cccc(c1)C(=O)N1CCc3ccc(cc3C1)C2CC(=O)O` (centres unmarked) [Compound 414], the IC50 was 106 nM and 313 nM.
As to `O=C(O)CC1c2ccc3c(c2)CN(CC3)C(=O)c2cccc(c2)OCCCCc2nnc3cc1ccn23` (centres unmarked) [Compound 415], the IC50 is 13200 nM and 8750 nM.
For the molecule `O=C(O)CC1c2ccc3c(c2)CN(CC3)C(=O)c2cccc(c2)OCCCCCc2nnc3cc1ccn23` (centres unmarked) [Compound 416], the IC50 was 2420 nM and 348 nM.
Same read-out and setting: in the case of `Cc1c2cccc1C(=O)N1CCc3ccc(cc3C1)C(CC(=O)O)c1ccc3c(c1)nnn3CCCCO2` (centres unmarked) [Compound 417] it was 42.7 nM and 35.2 nM; in that of `Cc1ccc2cc1OC/C=C/CCn1nnc3cc(ccc31)C(CC(=O)O)c1ccc3c(c1)CN(CC3)C2=O` (centres unmarked) [Compound 418], 390 nM and 381 nM; in that of `Cc1c2cccc1C(=O)N1CCc3ccc(cc3C1)C(CC(=O)O)c1ccc3c(c1)nnn3CCCCCO2` (centres unmarked) [Compound 420], 8.5 nM and 8.3 nM.
`Cc1c2ccc3c1nnn3CCCCCOc1cccc(c1)C(=O)N1CCc3ccc(cc3C1)C2CC(=O)O` (centres unmarked) [Compound 421]: the IC50 is 10.1 nM and 8.4 nM.
For the molecule `Cc1ccc2cc1C(=O)N1CCc3ccc(cc3C1)C(CC(=O)O)c1ccc3c(c1)nnn3CCCCCO2` (centres unmarked) [Compound 422], the IC50 is 11.3 nM and 12.2 nM.
The same measure, in the same setting: in the case of `O=C(O)CC1c2ccc3c(c2)CN(CC3)C(=O)c2ccc(cc2)OC/C=C/CCn2nnc3cc1ccc32` (centres unmarked) [Compound 424] it was 4.8 nM and 4.7 nM and 2.2 nM and 0.5 nM; in that of `Cc1c2ccc3nn(nc13)CC/C=C/COc1cccc(c1)C(=O)N1CCc3ccc(cc3C1)C2CC(=O)O` (centres unmarked) [Compound 425], 4320 nM and 5390 nM; in that of `Cc1ccc2cc1C(=O)N1CCc3ccc(cc3C1)C(CC(=O)O)c1ccc3c(c1)nnn3CC/C=C/CO2` (centres unmarked) [Compound 426], 9.2 nM and 11.6 nM.
On to `Cc1c2cccc1C(=O)N1CCc3ccc(cc3C1)C(CC(=O)O)c1ccc3c(c1)nnn3CC/C=C/CO2` (centres unmarked) [Compound 427], for which the IC50 is 9.2 nM and 9.9 nM.
As for `Cc1ccc2cc1OCCCCn1nnc3cc(ccc31)C(CC(=O)O)c1ccc3c(c1)CN(CC3)C2=O` (centres unmarked) [Compound 428], the IC50 was 1090 nM and 962 nM.

The values are drawn from patent publication US12692274B2, “Tetrahydroisoquinoline derivatives for the treatment of red blood disorders and inflammatory diseases” (Sanofi, priority 2020, dated 2026).
